Test results: the supplement of paper PMC12317010
Counter-ions that a name gives are not always drawn.

Test: collision cross section in nitrogen (drift tube, single-field); higher = larger gas-phase ion size
[1] = ion type: [M+Na], ion source: ESI, ion mode: Positive
[2] = ion type: [M+H], ion source: APCI, ion mode: Positive
[3] = ion type: [M+H], ion source: ESI, ion mode: Positive
[4] = ion type: [M-H], ion source: ESI, ion mode: Negative
[5] = ion type: [M+], ion source: APCI, ion mode: Positive
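Also: chemical standards at 10 µM analysed by drift tube IMS-QTOF MS in about 3.95 torr nitrogen, mean of duplicate injections differing ≤1%, mass error below 10 ppm.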

Row | collision cross section in nitrogen [1] [Å²] | collision cross section in nitrogen [2] [Å²] | collision cross section in nitrogen [3] [Å²] | collision cross section in nitrogen [4] [Å²] | SMILES | also measured
1 |  | 120.7 | 122.2 | 118.9 | c1ccc2[nH]nnc2c1 [1,2,3-Benzotriazole] | 
2 | 225.3 | 217.3 | 216.8 |  | CC(=O)N1CCN(c2ccc(OC[C@H]3CO[C@](Cn4ccnc4)(c4ccc(Cl)cc4Cl)O3)cc2)CC1 [Ketoconazole] | 
3 | 147.7 | 141 | 141.3 | 140.4 | CNC[C@H](O)[C@@H](O)[C@H](O)[C@H](O)CO [(2R,3R,4R,5S)-6-(Methylamino)hexane-1,2,3,4,5-pentol] | 
4 |  |  |  | 130.7 | O=C(O)c1cc(Cl)cc(Cl)c1O [3,5-Dichlorosalicylic acid] | 
5 |  |  |  | 167.6 | Nc1cc(Cl)c(-c2cc(Cl)c(N)cc2Cl)cc1Cl [2,2',5,5'-Tetrachlorobenzidine] | collision cross section in nitrogen [5]: 164.9 Å²
6 | 175.7 | 171.8 | 171.7 |  | CN(CCO)CC(O)Cn1cnc2c1c(=O)n(C)c(=O)n2C (centres undefined) [Xanthinol niacinate] | 
7 | 158.8 | 152 | 151.8 |  | CCOC(=O)NNc1nncc2ccccc12 [Todralazine hydrochloride] | 
8 |  |  | 201.9 | 201.5 | CC(=O)O[C@]1(C(C)=O)CC[C@H]2[C@@H]3C=C(Cl)C4=CC(=O)[C@@H]5C[C@@H]5[C@]4(C)[C@H]3CC[C@@]21C [Cyproterone acetate] | 
9 |  |  |  | 187.2 | Cc1cc(N=Nc2c(O)ccc3ccccc23)c(S(=O)(=O)O)cc1Cl [C.I. Pigment Red 53] | 
10 | 262.5 | 240.1 | 239 |  | Cc1occc1C(=O)Nc1ccc(C(=O)N2CCC(F)(F)/C(=C\C(=O)N3CCC(N4CCCCC4)CC3)c3ccccc32)cc1 [YM 218] | 
11 | 165.8 | 157.2 | 157 | 159.5 | Nc1nc(Cl)nc2c1ncn2[C@H]1C[C@H](O)[C@@H](CO)O1 [Cladribine] | 
12 |  | 149.3 | 149.6 |  | CCOC(=O)c1ccc(N(C)C)cc1 [Parbenate] | 
13 | 246.2 |  | 221.9 | 221.9 | CC#C[C@]1(O)CC[C@H]2[C@@H]3CCC4=CC(=O)CCC4=C3[C@@H](c3ccc(N(C)C)cc3)C[C@@]21C [Mifepristone] | 
14 | 148.5 |  |  |  | NCCNCCNCCNCCN [Tetraethylenepentamine] | 
15 | 202 | 203.6 | 203.4 | 188.5 | O=c1[nH]c2ccc(S(=O)CCN3CCC(Cc4ccc(F)cc4)CC3)cc2o1 (centres undefined) [Besonprodil] | 
16 | 169.9 |  |  |  | C=CC(=O)OCC(C)OCC(C)OCC(C)OC(=O)C=C (centres undefined) [Tripropylene glycol diacrylate] | 
17 | 204.9 | 197.2 |  |  | CCCOc1sc(C(=O)N2CCC(c3cc(CN)ccc3F)CC2)c(C)c1Br [AVE8923] | 
18 |  |  |  | 138.9 | Cc1ccc(S(=O)(=O)O)c(C)c1 [Sodium m-xylene-4-sulfonate] | 
19 | 205.5 | 186.2 | 185 | 190.5 | O=C1OC2(c3ccccc31)c1ccc(O)c(Br)c1Oc1c2ccc(O)c1Br [C.I. Solvent Red 72] | 

Row | collision cross section in nitrogen [1] [Å²] | collision cross section in nitrogen [2] [Å²] | collision cross section in nitrogen [3] [Å²] | collision cross section in nitrogen [4] [Å²] | SMILES | also measured
20 | 155.6 |  |  |  | CCOCCOC(=O)C=Cc1ccc(OC)cc1 [Cinoxate] | 
21 | 207.2 |  |  |  | CCCCC(CC)COC(=O)/C=C\C(=O)OCC(CC)CCCC (centres undefined) [Bis(2-ethylhexyl) maleate] | 
22 |  | 175.1 | 174.8 |  | Cc1[nH]cnc1C[C@H]1CCc2c(C)c3ccccc3n2C1=O [Fabesetron hydrochloride] | 
23 |  | 136 | 136.9 |  | CN1C(C)(C)CC(O)CC1(C)C [1,2,2,6,6-Pentamethylpiperidin-4-ol] | 
24 |  |  |  |  | CCCC[N+](C)(CCCC)CCCC [N,N-Dibutyl-N-methylbutan-1-aminium chloride] | collision cross section in nitrogen (ion source: APCI, ion mode: Positive, ion type: [M]+ (permanent cation)): 153.8 Å²; collision cross section in nitrogen (ion source: ESI, ion mode: Positive, ion type: [M]+ (permanent cation)): 154.5 Å²
25 |  | 125.2 | 126.2 |  | Cc1ccc2ccccc2n1 [2-Methylquinoline] | 
26 |  |  |  | 136.9 | Cc1ccc(C(C)C)cc1O [Isopropyl-o-cresol] | 
27 |  |  |  | 118.9 | Oc1cccc(O)c1 [Resorcinol] | 
28 |  |  | 156.4 |  | Nc1ccc(-c2ccc(F)cc2)cc1 [4'-Fluoro-4-aminodiphenyl] | collision cross section in nitrogen [5]: 136.9 Å²
29 |  |  | 158.6 | 163.8 | O=C1c2ccccc2C(=O)C1c1ccc2ccccc2n1 [D & C Yellow 11] | 
30 | 150.9 |  |  |  | O=C(O)CONC(=O)c1ccccc1 [Benzadox] | 
31 | 152.4 | 141.6 | 139.7 | 142 | c1ccc2[nH]c(-c3cscn3)nc2c1 [Thiabendazole] | 
32 |  |  | 151.6 |  | CNc1cccc2c1C(=O)c1ccccc1C2=O [1-(Methylamino)anthraquinone] | 
33 |  |  |  | 149 | O=C1c2ccccc2C(=O)c2c(O)c(O)cc(O)c21 [Purpurin] | 
34 |  | 139.5 | 140.5 |  | CCN(CCN)c1cccc(C)c1 [N-Ethyl-N-(3-methylphenyl)ethane-1,2-diamine] | 
35 |  |  |  | 144.9 | Cc1cc(C)c(O)c(C(C)(C)C)c1 [6-tert-Butyl-2,4-xylenol] | 
36 |  |  |  | 159.6 | Oc1ccc(C2COc3cc(O)ccc3C2)cc1 (racemic) [(R,S)-Equol] | 
37 |  |  |  | 200 | CC(C)n1c(/C=C/[C@H](O)C[C@H](O)CC(=O)O)c(-c2ccc(F)cc2)c2ccccc21 [Fluvastatin] | 
38 |  | 118.9 | 119.8 |  | Nc1cccc(N)n1 [2,6-Diaminopyridine] | 

Row | SMILES | collision cross section in nitrogen [1] [Å²] | collision cross section in nitrogen [2] [Å²] | collision cross section in nitrogen [3] [Å²] | collision cross section in nitrogen [4] [Å²] | also measured
39 | COc1ccc(-c2ccccc2)cc1NNC(=O)OC(C)C [Bifenazate] | 185.7 |  |  |  | 
40 | CC(C)(C)CC(C)(C)c1ccc(O)cc1 [4-(1,1,3,3-Tetramethylbutyl)phenol] |  |  |  | 157.1 | 
41 | CSc1nnc(C(C)(C)C)c(=O)n1N [Metribuzin] |  | 146.7 | 148.4 | 148.3 | 
42 | Fc1ccc(Oc2ccnc3cc(Cl)cc(Cl)c23)cc1 [Quinoxyfen] |  | 165.8 | 165.5 |  | 
43 | Cc1cc(Cl)ccc1OCC(=O)O |  |  |  | 146.1 | 
44 | C=CC(=O)OCC(CO)(COC(=O)C=C)COC(=O)C=C [Pentaerythritol triacrylate] | 165.1 |  |  |  | 
45 | Cc1cc(Cl)ccc1OCC(=O)O [2-(4-Chloro-2-methylphenoxy)acetic acid] |  |  |  | 146.1 | 
46 | CCCCOC(=O)c1ccccc1C(=O)OCCCC [Dibutyl 1,2-benzenedicarboxylate] | 182.9 |  |  |  | 
47 | CC(C)=C[C@@H]1[C@@H](C(=O)OCc2coc(Cc3ccccc3)c2)C1(C)C [Bioresmethrin] | 188.3 |  |  |  | 
48 | COP(=O)(CCC(=O)NCO)OC [Dimethyl (3-((hydroxymethyl)amino)-3-oxopropyl)phosphonate] | 144 |  |  |  | 
49 | Cc1cc(SCc2sc(-c3ccc(C(F)(F)F)c(F)c3)nc2C)ccc1OCC(=O)O |  | 194.4 | 194.2 | 199.5 | 
50 | CC(c1ccccc1)(c1ccc(O)cc1)c1ccc(O)cc1 [4,4'-(1-Phenylethylidene)bisphenol] |  |  |  | 180 | 
51 | COC(=O)c1ccccc1CS(=O)(=O)NC(=O)Nc1nc(OC)cc(OC)n1 [Bensulfuron-methyl] | 197.8 |  |  |  | 
52 | Nc1ccc(N=Nc2ccc(-c3ccc(N=Nc4c(S(=O)(=O)O)cc5cc(S(=O)(=O)O)c(N=Nc6ccccc6)c(O)c5c4N)cc3)cc2)c(N)c1 [C.I. Direct Black 38] |  |  | 311 | 304.4 | 
53 | CC(C)(c1ccc(O)c(-c2ccccc2)c1)c1ccc(O)c(-c2ccccc2)c1 [BisOPP-A] |  |  |  | 204 | 
54 | CCOP(=O)(O)OCC [Diethyl hydrogen phosphate] |  |  |  | 129.2 | 
55 | O=C(NC(=O)c1c(F)cccc1F)Nc1ccc(Oc2ccc(C(F)(F)F)cc2Cl)cc1F [Flufenoxuron] |  |  |  | 215.8 | 
56 | CC(C)CCCCCCCOC(=O)c1ccccc1C(=O)OCCCCCCCC(C)C | 225.8 |  |  |  | 
57 | c1ccc(N=Nc2ccccc2)cc1 [Azobenzene] |  | 139.5 |  |  | 
58 | C=CCO/N=C(\CCC)C1C(=O)CC(C)(C)C(C(=O)OC)C1=O (centres undefined) [Alloxydim sodium] | 179.4 | 175.7 | 175.7 | 177.7 | 
59 | COP(=O)(NC(C)=O)SC (centres undefined) [Acephate] | 141 |  |  | 133.9 | 
60 | COC(=O)N(OC)c1ccccc1COc1ccn(-c2ccc(Cl)cc2)n1 [Pyraclostrobin] | 195.5 | 184.5 | 183.8 |  | 
61 | Cc1c(C(=O)c2cnn(C)c2O)ccc(S(C)(=O)=O)c1C1=NOCC1 [Topramezone] | 181.1 |  |  | 182.9 | 
62 | CNC(=O)ON=C(CSC)C(C)(C)C | 160.6 |  |  |  | 
